Measurements taken from paper PMC7846792, “Perception of a divergent family of phytocytokines by the Arabidopsis receptor kinase MIK2” (Nature Communications, 2021).
No end group written: not given here.

System: A. thaliana seedlings
Assay: Seedling growth inhibition (fresh weight)
Format: in vivo, Arabidopsis thaliana
Settings: mock mean = 1
Description: Four-day-old seedlings growing on MS plates were transferred individually into separate wells of transparent 48-well tissue culture plates (Greiner Bio-One) containing 500 μL of liquid MS media with/without elicitor addition. The plates were then transferred back to the growth conditions for an additional 10 days before seedlings were blot-dried and weighed.

GTGPSHSGHGGSS [SCOOP9]
Seedling fresh weight (Fig3C), relative to mock (Col-0, 1 μM, replicate 1): 0.7762 | Seedling fresh weight (Fig3C), relative to mock (Col-0, 1 μM, replicate 2): 0.8462 | Seedling fresh weight (Fig3C), relative to mock (Col-0, 1 μM, replicate 3): 0.6605 | Seedling fresh weight (Fig3C), relative to mock (Col-0, 1 μM, replicate 4): 0.7701 | Seedling fresh weight (Fig3C), relative to mock (Col-0, 1 μM, replicate 5): 0.4809 | Seedling fresh weight (Fig3C), relative to mock (Col-0, 1 μM, replicate 6): 0.5418 | Seedling fresh weight (Fig3C), relative to mock (Col-0, 1 μM, replicate 7): 0.6179 | Seedling fresh weight (Fig3C), relative to mock (Col-0, 1 μM, replicate 8): 0.7457 | Seedling fresh weight (Fig3C), relative to mock (Col-0, 1 μM, replicate 9): 0.8066 | Seedling fresh weight (Fig3C), relative to mock (Col-0, 1 μM, replicate 10): 0.831 | Seedling fresh weight (Fig3C), relative to mock (Col-0, 1 μM, replicate 11): 0.7549 | Seedling fresh weight (Fig3C), relative to mock (Col-0, 1 μM, replicate 12): 0.7275 | Seedling fresh weight (Fig3C), relative to mock (Col-0, 10 μM, replicate 1): 0.06065 | Seedling fresh weight (Fig3C), relative to mock (Col-0, 10 μM, replicate 2): 0.1274 | Seedling fresh weight (Fig3C), relative to mock (Col-0, 10 μM, replicate 3): 0.1304 | Seedling fresh weight (Fig3C), relative to mock (Col-0, 10 μM, replicate 4): 0.1061 | Seedling fresh weight (Fig3C), relative to mock (Col-0, 10 μM, replicate 5): 0.1395 | Seedling fresh weight (Fig3C), relative to mock (Col-0, 10 μM, replicate 6): 0.08795 | Seedling fresh weight (Fig3C), relative to mock (Col-0, 10 μM, replicate 7): 0.1759 | Seedling fresh weight (Fig3C), relative to mock (Col-0, 10 μM, replicate 8): 0.2365 | Seedling fresh weight (Fig3C), relative to mock (Col-0, 10 μM, replicate 9): 0.1395 | Seedling fresh weight (Fig3C), relative to mock (Col-0, 10 μM, replicate 10): 0.2032 | Seedling fresh weight (Fig3C), relative to mock (Col-0, 10 μM, replicate 11): 0.1789 | Seedling fresh weight (Fig3C), relative to mock (Col-0, 10 μM, replicate 12): 0.1425 | Seedling fresh weight (Fig3C), relative to mock (mik2-1, 1 μM, replicate 1): 0.8374 | Seedling fresh weight (Fig3C), relative to mock (mik2-1, 1 μM, replicate 2): 1.059 | Seedling fresh weight (Fig3C), relative to mock (mik2-1, 1 μM, replicate 3): 0.8173 | Seedling fresh weight (Fig3C), relative to mock (mik2-1, 1 μM, replicate 4): 0.935 | Seedling fresh weight (Fig3C), relative to mock (mik2-1, 1 μM, replicate 5): 0.9081 | Seedling fresh weight (Fig3C), relative to mock (mik2-1, 1 μM, replicate 6): 0.9484 | Seedling fresh weight (Fig3C), relative to mock (mik2-1, 1 μM, replicate 7): 1.0157 | Seedling fresh weight (Fig3C), relative to mock (mik2-1, 1 μM, replicate 8): 1.056 | Seedling fresh weight (Fig3C), relative to mock (mik2-1, 1 μM, replicate 9): 0.972 | Seedling fresh weight (Fig3C), relative to mock (mik2-1, 1 μM, replicate 10): 1.002 | Seedling fresh weight (Fig3C), relative to mock (mik2-1, 1 μM, replicate 11): 1.066 | Seedling fresh weight (Fig3C), relative to mock (mik2-1, 1 μM, replicate 12): 1.039 | Seedling fresh weight (Fig3C), relative to mock (mik2-1, 10 μM, replicate 1): 0.8757 | Seedling fresh weight (Fig3C), relative to mock (mik2-1, 10 μM, replicate 2): 0.9704 | Seedling fresh weight (Fig3C), relative to mock (mik2-1, 10 μM, replicate 3): 1.224 | Seedling fresh weight (Fig3C), relative to mock (mik2-1, 10 μM, replicate 4): 0.9062 | Seedling fresh weight (Fig3C), relative to mock (mik2-1, 10 μM, replicate 5): 0.9941 | Seedling fresh weight (Fig3C), relative to mock (mik2-1, 10 μM, replicate 6): 0.8622 | Seedling fresh weight (Fig3C), relative to mock (mik2-1, 10 μM, replicate 7): 0.9772 | Seedling fresh weight (Fig3C), relative to mock (mik2-1, 10 μM, replicate 8): 0.9028 | Seedling fresh weight (Fig3C), relative to mock (mik2-1, 10 μM, replicate 9): 0.94 | Seedling fresh weight (Fig3C), relative to mock (mik2-1, 10 μM, replicate 10): 1.021 | Seedling fresh weight (Fig3C), relative to mock (mik2-1, 10 μM, replicate 11): 0.9062 | Seedling fresh weight (Fig3C), relative to mock (mik2-1, 10 μM, replicate 12): 0.9298

FTGPSGSGHGGGR [SCOOP10]
Seedling fresh weight (Fig3C), relative to mock (Col-0, 1 μM, replicate 1): 1.053 | Seedling fresh weight (Fig3C), relative to mock (Col-0, 1 μM, replicate 2): 0.7731 | Seedling fresh weight (Fig3C), relative to mock (Col-0, 1 μM, replicate 3): 0.8401 | Seedling fresh weight (Fig3C), relative to mock (Col-0, 1 μM, replicate 4): 1.102 | Seedling fresh weight (Fig3C), relative to mock (Col-0, 1 μM, replicate 5): 0.9923 | Seedling fresh weight (Fig3C), relative to mock (Col-0, 1 μM, replicate 6): 0.9101 | Seedling fresh weight (Fig3C), relative to mock (Col-0, 1 μM, replicate 7): 0.9071 | Seedling fresh weight (Fig3C), relative to mock (Col-0, 1 μM, replicate 8): 0.8705 | Seedling fresh weight (Fig3C), relative to mock (Col-0, 1 μM, replicate 9): 0.8462 | Seedling fresh weight (Fig3C), relative to mock (Col-0, 1 μM, replicate 10): 0.7792 | Seedling fresh weight (Fig3C), relative to mock (Col-0, 1 μM, replicate 11): 0.9497 | Seedling fresh weight (Fig3C), relative to mock (Col-0, 1 μM, replicate 12): 0.9679 | Seedling fresh weight (Fig3C), relative to mock (Col-0, 10 μM, replicate 1): 0.6611 | Seedling fresh weight (Fig3C), relative to mock (Col-0, 10 μM, replicate 2): 0.655 | Seedling fresh weight (Fig3C), relative to mock (Col-0, 10 μM, replicate 3): 0.649 | Seedling fresh weight (Fig3C), relative to mock (Col-0, 10 μM, replicate 4): 0.4731 | Seedling fresh weight (Fig3C), relative to mock (Col-0, 10 μM, replicate 5): 0.5034 | Seedling fresh weight (Fig3C), relative to mock (Col-0, 10 μM, replicate 6): 0.7187 | Seedling fresh weight (Fig3C), relative to mock (Col-0, 10 μM, replicate 7): 0.652 | Seedling fresh weight (Fig3C), relative to mock (Col-0, 10 μM, replicate 8): 0.7096 | Seedling fresh weight (Fig3C), relative to mock (Col-0, 10 μM, replicate 9): 0.5944 | Seedling fresh weight (Fig3C), relative to mock (Col-0, 10 μM, replicate 10): 0.5519 | Seedling fresh weight (Fig3C), relative to mock (Col-0, 10 μM, replicate 11): 0.555 | Seedling fresh weight (Fig3C), relative to mock (Col-0, 10 μM, replicate 12): 0.6884 | Seedling fresh weight (Fig3C), relative to mock (mik2-1, 1 μM, replicate 1): 0.8644 | Seedling fresh weight (Fig3C), relative to mock (mik2-1, 1 μM, replicate 2): 1.019 | Seedling fresh weight (Fig3C), relative to mock (mik2-1, 1 μM, replicate 3): 1.022 | Seedling fresh weight (Fig3C), relative to mock (mik2-1, 1 μM, replicate 4): 0.7702 | Seedling fresh weight (Fig3C), relative to mock (mik2-1, 1 μM, replicate 5): 0.8139 | Seedling fresh weight (Fig3C), relative to mock (mik2-1, 1 μM, replicate 6): 0.8307 | Seedling fresh weight (Fig3C), relative to mock (mik2-1, 1 μM, replicate 7): 0.9619 | Seedling fresh weight (Fig3C), relative to mock (mik2-1, 1 μM, replicate 8): 1.049 | Seedling fresh weight (Fig3C), relative to mock (mik2-1, 1 μM, replicate 9): 1.086 | Seedling fresh weight (Fig3C), relative to mock (mik2-1, 1 μM, replicate 10): 1.002 | Seedling fresh weight (Fig3C), relative to mock (mik2-1, 1 μM, replicate 11): 1.026 | Seedling fresh weight (Fig3C), relative to mock (mik2-1, 1 μM, replicate 12): 1.123 | Seedling fresh weight (Fig3C), relative to mock (mik2-1, 10 μM, replicate 1): 0.8284 | Seedling fresh weight (Fig3C), relative to mock (mik2-1, 10 μM, replicate 2): 1.096 | Seedling fresh weight (Fig3C), relative to mock (mik2-1, 10 μM, replicate 3): 0.9366 | Seedling fresh weight (Fig3C), relative to mock (mik2-1, 10 μM, replicate 4): 0.8791 | Seedling fresh weight (Fig3C), relative to mock (mik2-1, 10 μM, replicate 5): 0.9096 | Seedling fresh weight (Fig3C), relative to mock (mik2-1, 10 μM, replicate 6): 0.8453 | Seedling fresh weight (Fig3C), relative to mock (mik2-1, 10 μM, replicate 7): 0.967 | Seedling fresh weight (Fig3C), relative to mock (mik2-1, 10 μM, replicate 8): 0.94 | Seedling fresh weight (Fig3C), relative to mock (mik2-1, 10 μM, replicate 9): 0.9806 | Seedling fresh weight (Fig3C), relative to mock (mik2-1, 10 μM, replicate 10): 0.896 | Seedling fresh weight (Fig3C), relative to mock (mik2-1, 10 μM, replicate 11): 1.031 | Seedling fresh weight (Fig3C), relative to mock (mik2-1, 10 μM, replicate 12): 1.096
